Assay in data set [1]: not given
This is another data set of the same source.

Assay in data set [2]: not given
The source holds these as a separate data set.

Assay in data set [3]: not given
This is another data set of the same source.

Data set [4] is described as follows: method code SF-GLC, from DOI: 10.1016/j.chemosphere.2004.08.061, PMID: 15519382.
Data set [5] is described as follows: method code SF-HPLC, from DOI: 10.1002/jps.10072, PMID: 11920751. Particulars: pH 7.4.
Data set [6] in a line: method code SF-AS, from DOI: 10.1021/es00012a023, PMID: 22148214.
Data set [7] in a line: method code SF-HPLC, from DOI: 10.1248/cpb.41.694.
Assay in data set [8]: not given
This is another data set of the same source.

The nature of data set [9]: method code SF-CR+DM, from DOI: 10.1021/ja01573a017. Particulars: pH 6.5.
Data set [10] is described as follows: method code SF-HPLC, from DOI: 10.1007/s00216-006-0868-5, PMID: 17082876.
Data set [11] is described as follows: method code SF-HPLC, from DOI: 10.1016/0378-5173(86)90071-2. Particulars: pH 7.4.
Data set [12] can be described thus: method code SF-HPLC, from Peips, M.; Sikk, P.; Aaviksaar, A. (1986). Hydrophobic interaction in the active sites of serine proteases from thermoactinomycetes. Org. React., 23(3)261-271. Particulars: pH 2.2.
Assay in data set [13]: not given
This is another data set of the same source.

Data set [14] is described as follows: method code SF-RC, from DOI: 10.1023/a:1015892313856, PMID: 1495896.
A short description of data set [15]: method code SF-NMR, from DOI: 10.1021/jm00157a023, PMID: 3806574.
Data set [16] is described as follows: method code SF, from DOI: 10.1016/0223-5234(94)90060-4. Particulars: pH 7.4.
Assay in data set [17]: not given
This is another data set of the same source.

Data set [18] can be described thus: method code SF, from DOI: 10.3109/00498258709043934, PMID: 3564538.
Data set [19] in a line: method code SF-AS, from DOI: 10.1002/jps.2600611027, PMID: 5072421.
Assay in data set [20]: not given
The source holds these as a separate data set.

A short description of data set [21]: method code SF-AS, from DOI: 10.1016/0006-2952(93)90433-w, PMID: 8494536. Particulars: pH 7.4.
Assay in data set [22]: not given
The source holds these as a separate data set.

A short description of data set [23]: method code SF-AS, from DOI: 10.1021/acs.inorgchem.5b01238, PMID: 26280387.
Data set [24] can be described thus: method code SF-AS, from DOI: 10.1021/jf60220a002.
A short description of data set [25]: method code SF-AS, from DOI: 10.1021/jm00297a026, PMID: 5441130.

Peptide text beside a SMILES is read from it. * marks the point of attachment. NHtBu = CC(C)(C)N*

Broadly, the logP is the decadic logarithm of the partition coefficient of the neutral form, usually between octanol and water. Turning to `S=c1ssc(-c2ccccc2)c1-c1ccccc1`, the logP worked out at 4.2.

In turn, `CC(=O)C=Cc1ccccc1` showed a logP in [1] of 2.13.

On to `Cc1cc2ccccc2cc1C`, for which, in [2], the logP is 4.4.

Turning to `CC12CCC(c3c1ssc3=S)C2(C)C` (stereo not given), the log partition coefficient (logP) stood at 3.7.

Compound `Cc1cccc2ccccc12` came in with a log partition coefficient (logP) in data set [2] of 3.87.

In [3], `COc1ccc(C(C(=O)O)C(C)C)cc1` (stereo not given) yielded a logP of 2.5.

Take `Cn1c(Br)c(Br)c(Br)c1-c1c(Br)c(Br)c(Br)n1C`: the logP in [4] was 6.7.

The logD is lipophilicity at a set pH, counting ionised and neutral species. In turn, `CCCCC(=O)OCC(CO)OCn1cnc2c(=O)[nH]c(N)nc21` (stereo not given) had a logD in [5] of -0.07.

The compound `CC(C)C(C(=O)O)c1ccc(Cl)cc1` (stereo not given) had a lipophilicity (logP) in data set [3] of 3.38.

Regarding `CC(C)OC(=O)CSc1ccccc1[N+](=O)[O-]`, the logP in [6] was 2.76.

For the compound `CN(C)C(=O)OCc1cccc([N+](=O)[O-])c1`, the lipophilicity (logP) in data set [7] was determined as 1.98.

`Cn1c(Cl)c(Br)c(Br)c1-c1c(Br)c(Br)c(Br)n1C`: the logP in data set [4] was found to be 6.6.

For the compound `CC1(c2ccncc2)CCC(=O)NC1=O` (stereo not given), the log partition coefficient (logP) in data set [8] is 0.07.

In [9], `Cc1ccc(NC(=O)c2ccccc2)c(O)c1` registered a pH-dependent lipophilicity (logD) of 3.08.

`N=C(Nc1ccccc1)Nc1ccccc1` registered a logP in data set [10] of 2.85.

`CC(C)(C)C(=O)OCOc1ccccc1C(N)=O` came in with a log distribution coefficient (logD) in [11] of 2.

As to `CCCCC(NC(C)=O)C(=O)OC` (racemic), in data set [12], the logD is 0.79.

`Cn1c(Cl)c(Cl)c(Br)c1-c1c(Br)c(Br)c(Cl)n1C` gave a lipophilicity (logP) in data set [4] of 6.5.

In turn, `CC(C)OC(=O)CS(=O)c1ccc([N+](=O)[O-])cc1` (stereo not given) yielded a lipophilicity (logP) in data set [6] of 1.64.

Turning to `CCCCCCCCC1(c2ccncc2)CCC(=O)NC1=O` (stereo not given), the logP in data set [8] amounted to 4.04.

In turn, `Brc1cc(Br)c(-c2cc(Br)ccc2Br)c(Br)c1` gave a logP in [13] of 6.89.

`CC(=O)NC(C)C(=O)NC(CCC(N)=O)C(=O)NC(C)C(=O)NC(C)(C)C` (stereo not drawn) (Ac-Ala-Gln-Ala-NHtBu; configuration not given here): in data set [14] (pH 2.0), the pH-dependent lipophilicity (logD) was -0.67.

In data set [3], `CC(C)C(C(=O)O)c1ccc(OC(F)F)cc1` (stereo not given) gave a logP of 3.03.

With `O=P(N1CCOCCOCCOCCOCC1)(N1CC1)N1CC1`, the logP in data set [15] was determined as 0.12.

As for `CC(C=CC1=C(C)CCCC1(C)C)=CC=CC(C)=CC(=O)OCC1OC(n2ccc(N)nc2=O)CS1` (stereo not given), the logD in data set [16] amounted to 1.24.

In the case of `COCCc1ccc(OCC(O)CNC(C)C)cc1` (stereo not given), the log partition coefficient (logP) in [1] came out at 1.65.

`Clc1cc2oc3c(Cl)c(Cl)c(Cl)c(Cl)c3c2cc1Cl` registered a logP in data set [17] of 6.6.

`CC(C)OC(=O)C(C(=O)OC(C)C)=C1SC=CS1`: in data set [18], the log partition coefficient (logP) was found to be 3.75.

With `CCCC(=O)OCOc1ccccc1C(N)=O`, the logD in [11] was determined as 1.66.

In data set [19], `CCCCCc1ccncc1` registered a logP of 3.75.

Regarding `CCC(=O)OCC(CO)OCn1cnc2c(=O)[nH]c(N)nc21` (stereo not given), the pH-dependent lipophilicity (logD) in data set [5] was -0.92.

In the case of `CC(C)(C)NCC(O)COc1cccc2c1C[C@H](O)[C@H](O)C2` (stereo not given in full), in [1], the log partition coefficient (logP) is 1.27.

As for `Cc1cn([C@H]2C[C@H](O)[C@@H](CO)O2)c(=O)[nH]c1=O`, the logP in [20] was -1.04.

In data set [6], `CC(C)OC(=O)CS(=O)c1ccc(Cl)cc1[N+](=O)[O-]` (stereo not given) had a logP of 2.22.

Regarding `CS(=O)CCCOc1ccc2ccccc2c1` (stereo not given), in data set [21], the pH-dependent lipophilicity (logD) came to 2.42.

As to `CC(=O)OC[C@H]1O[C@@H](n2cc(C)c(=O)[nH]c2=O)C[C@@H]1N=[N+]=[N-]`, in [22], the logP came out at 0.45.

As for `CSC(=S)C=C(O)c1ccc(O)cc1`, the lipophilicity (logP) in data set [23] was determined as 1.9.

`Oc1ccc(Cl)c2ccccc12` yielded a logD in [9] of 4.1.

As to `CCCCCCc1ccncc1`, the logP in data set [19] turned out to be 4.35.

`S=c1ssc2c1CCCCCCCCCCCCC2` came in with a logP of 7.18.

As for `CCCCCC(NC(C)=O)C(=O)OC` (stereo not given), the logD in [12] stood at 1.28.

`CCOCCOCCOP(=O)(N1CC1(C)C)N1CC1(C)C` (stereo not given) came in with a logP in [15] of 0.22.

`Cc1ccc(NC(=O)c2ccco2)c(O)c1` came in with a pH-dependent lipophilicity (logD) in data set [9] of 2.84.

Compound `COC(=O)[C@H](Cc1ccccc1)NC(C)=O` showed a pH-dependent lipophilicity (logD) in data set [12] of 0.92.

The compound `CCCCCCC1(c2ccncc2)CCC(=O)NC1=O` (stereo not given) displayed a log partition coefficient (logP) in data set [8] of 2.85.

In the case of `CC(=O)OCC1OC(n2ccc(N)nc2=O)C(O)C1O` (stereo not given), in data set [22], the log partition coefficient (logP) is -1.25.

In data set [5], `CC(=O)OCC(CO)OCn1cnc2c(=O)[nH]c(N)nc21` (stereo not given) returned a logD of -1.08.

In [7], `CN(C)C(=O)OCc1ccc(C(N)=O)cc1` returned a lipophilicity (logP) of 0.77.

In turn, `CCOP(=O)(NC)O/N=C(/C#N)c1ccc(Cl)cc1` (stereo not given) gave a logP in data set [24] of 2.5.

In data set [21], `Cc1ccc2cc3ccccc3cc2c1` had a pH-dependent lipophilicity (logD) of 5.

`CCCOC(=O)C(C(=O)OCCC)=C1SC=CS1` showed a log partition coefficient (logP) in [18] of 3.93.

In [15], `CCOCCOCCOP(=O)(N1CC1)N1CC1` showed a lipophilicity (logP) of 0.1.

Take `Cc1cn(C2CC(N=[N+]=[N-])C(COC(=O)c3ccncc3)O2)c(=O)[nH]c1=O` (stereo not given): in data set [22], the logP worked out at 0.8.

Consider `CC(=O)OCOc1ccccc1C(N)=O`, for which, in data set [11], the logD came to 0.52.

In turn, `CCSC(=S)C=C(O)c1cccc(O)c1` showed a lipophilicity (logP) in data set [23] of 1.73.

`CC(=O)N[C@@H](C)C(=O)NCC(=O)NC(C)(C)C` yielded a pH-dependent lipophilicity (logD) in [14] (pH 7.2) of -0.6.

As to `Cc1cn(C2CC(N=[N+]=[N-])C(COC(=O)C(=O)NC(Cc3ccccc3)C(=O)O)O2)c(=O)[nH]c1=O` (stereo not given), the logP in [20] is 1.2.

Consider `Clc1cc2c(oc3cc(Cl)c(Cl)c(Cl)c32)c(Cl)c1Cl`, for which the log partition coefficient (logP) in data set [17] is 6.6.

`CC(C=CC1=C(C)CCCC1(C)C)=CC=CC(C)=CC(=O)Nc1ccn(C2CSC(CO)O2)c(=O)n1` (stereo not given) displayed a log distribution coefficient (logD) in data set [16] of 1.23.

Regarding `CC(=O)CC(=O)Nc1ccccc1`, in data set [10], the log partition coefficient (logP) was 1.04.

As for `CCNP(=O)(OCC)ON=C(C#N)c1ccc([N+](=O)[O-])cc1` (stereo not given), the log partition coefficient (logP) in data set [24] amounted to 1.76.

On to `CCNP(=O)(OCC)O/N=C(/C#N)c1ccc(OC)cc1` (stereo not given), for which, in data set [24], the logP was 2.39.

`O=S1(=O)OC(c2cc(Br)c(O)c(Br)c2)(c2cc(Br)c(O)c(Br)c2)c2ccccc21`: the log partition coefficient (logP) in data set [10] is 4.88.

As for `CC(=O)OCC1OC(n2ccc(N)nc2=O)CS1` (stereo not given), the logD in data set [16] worked out at 0.51.

Turning to `CCc1ccc2ccccc2c1`, in [2], the log partition coefficient (logP) was determined as 4.38.

As to `CCCCCCCc1ccncc1`, the lipophilicity (logP) in data set [19] is 5.

On to `Brc1c(Br)c(Br)c(Oc2c(Br)c(Br)c(Br)c(Br)c2Br)c(Br)c1Br`, for which, in data set [13], the logP is 9.56.

In data set [20], `CCC(C)C(NC(=O)C(=O)OCC1OC(n2cc(C)c(=O)[nH]c2=O)CC1N=[N+]=[N-])C(=O)O` (stereo not given) registered a lipophilicity (logP) of 1.15.

Take `CS(=O)(=O)c1cccc2ccccc12`: in data set [21], the logD was determined as 1.74.

Regarding `CC(=O)NC(C)C(=O)NC(CC(=O)O)C(=O)NC(C)(C)C` (stereo not drawn) (Ac-Ala-Asp-NHtBu; configuration not given here), the log distribution coefficient (logD) in [14] (pH 2.0) is -0.74.

In turn, `CCOC(=O)C(C(=O)CC)=C1SC=CS1` displayed a logP in data set [18] of 2.9.

The compound `CSC(=S)C=C(O)c1cccc(O)c1` showed a logP in [23] of 1.71.

Turning to `CSc1ccc(COC(=O)N(C)C)cc1`, in data set [7], the logP is 2.86.

Consider `CCC(O)Cn1cnc2c(N)ncnc21` (stereo not given), for which the log partition coefficient (logP) in data set [25] is 0.14.

With `Brc1ccc(-c2cc(Br)ccc2Br)c(Br)c1`, in data set [13], the logP turned out to be 6.49.

(Values after the SangsterLogP compilation.)
